How the values were obtained:
pinene hydroxylase = assay: Pinene hydroxylase activity in crude cell extracts; format: biochemical, Bacillus BR424; conditions: for pinene hydroxylase activity with cofactor: NADPH and NADH in place of FAD and potassium ferricyanide
Bacillus isolate BR425 = assay: Growth of BR425 on monoterpenes as carbon source (CFU); format: cell-based; conditions: for growth in media containing the monoterpene as the carbon source: BR425; for optimal concentration for growth: BR425, M9 salts, monoterpene as carbon source, 50° C.
Description: For examination of growth rates on various substrates and metabolite production, BR425 was grown in 100 ml serum bottles containing 40 ml M9 salts and various concentrations of either α-pinene, β-pinene, limonene, carveol, carvone, or pinocarveol as the carbon source. The bottles were sealed with TEFLON-coated stoppers and aluminum caps (TEFLON is a trademark owned by E. I. du Pont and Nemours, Wilmington, Del.). Then the bottles were incubated in a water bath gyrorotatory shaker at 50° C. Growth of BR425 was assayed after incubations of 24, 48, and 72 hours as number of colony forming units (CFU).

BR424 = assay: Growth of BR424 on monoterpenes; format: cell-based, Bacillus isolate BR424

## Cc1cc2nc3c(=O)[nH]c(=O)nc-3n(C[C@H](O)[C@H](O)[C@H](O)COP(=O)(O)OP(=O)(O)OC[C@H]3O[C@@H](n4cnc5c(N)ncnc54)[C@H](O)[C@@H]3O)c2cc1C [FAD, Flavin Adenine Dinucleotide]
Pinene hydroxylase; addition 0.1 mM FAD
  Enzyme activity: 0.04 U/ml
Pinene hydroxylase; addition 1 mM FAD
  Enzyme activity: 0.47 U/ml

## NC(=O)C1=CN([C@@H]2O[C@H](COP(=O)(O)OP(=O)(O)OC[C@H]3O[C@@H](n4cnc5c(N)ncnc54)[C@H](O)[C@@H]3O)[C@@H](O)[C@H]2O)C=CC1 [NADH]
Pinene hydroxylase
  pinene hydroxylase activity with cofactor: No pinene hydroxylase activity was detected

## NC(=O)C1=CN([C@@H]2O[C@H](COP(=O)(O)OP(=O)(O)OC[C@H]3O[C@@H](n4cnc5c(N)ncnc54)[C@H](OP(=O)(O)O)[C@@H]3O)[C@@H](O)[C@H]2O)C=CC1 [NADPH]
Pinene hydroxylase
  pinene hydroxylase activity with cofactor: No pinene hydroxylase activity was detected

## C=C(C)C1CC=C(C)[C@@H](O)C1 (stereo partly drawn) [carveol]
Bacillus isolate BR425
  growth in media containing the monoterpene as the carbon source: shown to grow
  optimal concentration for growth: 0.05%

## C=C(C)C1CC=C(C)C(=O)C1 (stereo not drawn) [carvone]
Bacillus isolate BR425
  growth in media containing the monoterpene as the carbon source: shown to grow
  optimal concentration for growth: 0.01%

## C=C(C)[C@H]1CC=C(C)CC1 [limonene]
Bacillus isolate BR425
  growth in media containing the monoterpene as the carbon source: shown to grow
BR424
  growth in media containing the monoterpene: did not appear to be able to grow

## CC1(C)C2CC=C(CO)C1C2 (stereo not drawn) [myrtenol]
Bacillus isolate BR425
  growth in media containing the monoterpene as the carbon source: did not appear to grow

## CC1(C)C2CC3OC3(C)C1C2 (stereo not drawn) [pinene epoxide]
Bacillus isolate BR425
  growth in media containing the monoterpene as the carbon source: did not appear to grow

## CC1=CCC2CC1C2(C)C (stereo not drawn) [α-pinene]
Bacillus isolate BR425
  optimal concentration for growth: 0.2%
BR424
  growth in media containing the monoterpene: can grow

## C=C1CCC2CC1C2(C)C (stereo not drawn) [β-pinene]
Bacillus isolate BR425
  growth in media containing the monoterpene as the carbon source: shown to grow
  optimal concentration for growth: 0.2%
BR424
  growth in media containing the monoterpene: can grow

## myrtenal
Bacillus isolate BR425
  growth in media containing the monoterpene as the carbon source: did not appear to grow

Reference: US6344350B1, “Method for degradation of pinenes by bacillus isolates” (priority 1997, dated 2002)
